Source: patent publication US20070179060A1, “6-(Poly-substituted aryl)-4-aminopicolinates and their use as herbicides” (priority 2006, published 2007)

Tests used:
[1] = test system: velvetleaf (Abutilon theophrasti); experiment: Postemergence herbicidal activity; assay type: in vivo; conditions: post-emergent, 140 g ai/ha, after 14 days; for pest or weed control at 140 g/ha: Abutilon theophrasti, post-emergence, 336 h, read-out: % Control ABUTH
Outline: (§1)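 Compounds were applied postemergence by track sprayer delivering 187 L/ha, using a mixed organic/aqueous carrier containing crop oil concentrate and surfactant; solvent-blank sprays served as controls. Test plants were at the first to second true leaf stage after 7-21 days' greenhouse growth, were sub-irrigated after treatment, and were evaluated by probit analysis.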

[2] = test system: lambsquarter (Chenopodium album); experiment: Postemergence herbicidal activity; assay type: in vivo; conditions: post-emergent, 140 g ai/ha, after 14 days; for pest or weed control at 140 g/ha: Chenopodium album, post-emergence, 336 h, read-out: % Control CHEAL
Outline: as §1

[3] = test system: redroot pigweed (Amaranthus retroflexus); experiment: Postemergence herbicidal activity; assay type: in vivo; conditions: post-emergent, 140 g ai/ha, after 14 days; for pest or weed control at 140 g/ha: Amaranthus retroflexus, post-emergence, 336 h, read-out: % Control AMARE
Outline: as §1

[4] = test system: velvetleaf (Abutilon theophrasti); experiment: Preemergence herbicidal activity; assay type: in vivo; conditions: pre-emergent, after 20-22 days; for pest or weed control at 140 g/ha / % Control ABUTH: 140 g ai/ha
Excerpt: (§2) Seeds of the desired test plant species were planted in a soil matrix prepared by mixing a loam soil (43 percent silt, 19 percent clay, and 38 percent sand, with a pH of about 8.1 and an organic matter content of about 1.5 percent) and sand in a 70 to 30 ratio. The soil matrix was contained in plastic pots with a surface area of 113 square centimeters. When required to ensure good germination and healthy plants, a fungicide treatment and/or other chemical or physical treatment was applied. […] Compound requirements are based upon a 12 mL application volume at a rate of 187 L/ha. Formulated compounds were applied to the plant material with an overhead Mandel track sprayer equipped with a […] nozzles calibrated to deliver 187 L/ha over an application area of 0.503 square meters at a spray height of 18 inches (43 cm) above the soil surface. Control plants were sprayed in the same manner with the solvent blank. The treated pots and control pots were placed in a greenhouse maintained with an approximate 15 hour photoperiod and temperatures of about 23-29° C. during the day and 22-28° C. during the night. Nutrients and water were added on a regular basis and supplemental lighting was provided with overhead metal halide 1000-watt lamps as necessary. The water was added by top-irrigation.

[5] = test system: lambsquarter (Chenopodium album); experiment: Preemergence herbicidal activity; assay type: in vivo; conditions: pre-emergent, after 20-22 days; for pest or weed control at 140 g/ha / % Control CHEAL: 140 g ai/ha
Excerpt: as §2

[6] = test system: redroot pigweed (Amaranthus retroflexus); experiment: Preemergence herbicidal activity; assay type: in vivo; conditions: pre-emergent, after 20-22 days; for pest or weed control at 140 g/ha / % Control AMARE: 140 g ai/ha
Excerpt: as §2

[7] = Abutilon theophrasti, pre-emergence, 480 h, read-out: % Control ABUTH
[8] = Chenopodium album, pre-emergence, 480 h, read-out: % Control CHEAL
[9] = Amaranthus retroflexus, pre-emergence, 480 h, read-out: % Control AMARE

| Compound | pest or weed control at 140 g/ha [1] | pest or weed control at 140 g/ha [2] | pest or weed control at 140 g/ha [3] | pest or weed control at 140 g/ha [4, 7] | pest or weed control at 140 g/ha [5, 8] | pest or weed control at 140 g/ha [6, 9] | melting point | pest or weed control at 280 g/ha ([4]; Abutilon theophrasti, pre-emergence, 480 h, 280 g ai/ha, read-out: % Control ABUTH) | pest or weed control at 280 g/ha ([5]; Chenopodium album, pre-emergence, 480 h, 280 g ai/ha, read-out: % Control CHEAL) | pest or weed control at 280 g/ha ([6]; Amaranthus retroflexus, pre-emergence, 480 h, 280 g ai/ha, read-out: % Control AMARE) | % Control ABUTH [1] | % Control CHEAL [2] | % Control AMARE [3] | % Control ABUTH [4] | % Control CHEAL [5] | % Control AMARE [6] |
| --- | --- | --- | --- | --- | --- | --- | --- | --- | --- | --- | --- | --- | --- | --- | --- | --- |
| COCc1c(Cl)ccc(-c2cc(N)c(Cl)c(C(=O)OC)n2)c1F [Compound 3, 4-Amino-3-chloro-6-(4-chloro-2-fluoro-3-methoxymethylphenyl)pyridine-2-carboxylic acid methyl ester] | 100% | 80% | 100% | 98% | 95% | 100% | 116 to 117 °C | – | – | – | – | – | – | – | – | – |
| COC(=O)c1nc(-c2ccc(Cl)c(OCC(F)F)c2Cl)cc(N)c1Cl [Compound 10, 4-Amino-3-chloro-6-[2,4-dichloro-3-(2,2-difluoroethoxy)phenyl]pyridine-2-carboxylic acid methyl ester] | 90% | 100% | 100% | – | – | – | 113 to 115 °C | 40% | 80% | 50% | – | – | – | – | – | – |
| COC(=O)c1nc(-c2ccc3c(c2F)OCO3)c(F)c(N)c1Cl [Compound 12, 4-Amino-3-chloro-5-fluoro-6-(2-fluoro-3,4-methylenedioxyphenyl)pyridine-2-carboxylic acid methyl ester] | 100% | 100% | 100% | 100% | 100% | 100% | 151 to 152 °C | – | – | – | – | – | – | – | – | – |
| COC(=O)c1nc(-c2cc(OC)c(Cl)cc2F)c(F)c(N)c1Cl [Compound 15, 4-Amino-3-chloro-5-fluoro-6-(4-chloro-2-fluoro-5-methoxyphenyl)pyridine-2-carboxylic acid methyl ester] | 100% | 100% | 100% | 60% | 100% | 100% | 168 to 169 °C | – | – | – | – | – | – | – | – | – |
| COC(=O)c1nc(-c2ccc(Cl)c(C)c2F)cc(N)c1Cl [Compound 49, 4-Amino-3-chloro-6-(4-chloro-2-fluoro-3-methylphenyl)pyridine-2-carboxylic acid methyl ester] | 100% | 90% | 80% | 100% | 99% | 100% | 116 to 118 °C | – | – | – | – | – | – | – | – | – |
| CCOc1c(Cl)cc(F)c(-c2cc(N)c(Cl)c(C(=O)OC)n2)c1F [Compound 59, 4-Amino-3-chloro-6-(4-chloro-2,6-difluoro-3-ethoxyphenyl)pyridine-2-carboxylic acid, methyl ester] | 100% | 90% | 90% | 90% | 60% | 100% | – | – | – | – | – | – | – | – | – | – |
| COC(=O)c1nc(-c2ccc(Cl)c(C(F)F)c2Cl)cc(N)c1Cl [Compound 62, 4-Amino-3-chloro-6-(2,4-dichloro-3-difluoromethylphenyl)pyridine-2-carboxylic acid, methyl ester] | 100% | 100% | 100% | 100% | 100% | 100% | – | – | – | – | – | – | – | – | – | – |
| COC(=O)c1nc(-c2ccc(Cl)c(C(C)F)c2Cl)cc(N)c1Cl (stereo not shown) [Compound 63] | – | – | – | – | – | – | – | – | – | – | 100% | 100% | 100% | 100% | 100% | 100% |
| COC(=O)c1nc(-c2ccc(Cl)c(C(=O)C(F)(F)F)c2F)cc(N)c1Cl [Compound 82, 4-Amino-3-chloro-6-[4-chloro-2-fluoro-3-(2,2,2-trifluoroacetyl)phenyl]pyridine-2-carboxylic acid, methyl ester] | 100% | 95% | 100% | 90% | 100% | 100% | – | – | – | – | – | – | – | – | – | – |
| COC(=O)c1nc(-c2c(F)cc(C#N)c(OC)c2F)cc(N)c1Cl [Compound 95, 4-amino-3-chloro-6-(4-cyano-2,6-difluoro-3-methoxyphenyl)pyridine-2-carboxylic acid, methyl ester] | 100% | 90% | 85% | 90% | 90% | 90% | – | – | – | – | – | – | – | – | – | – |
| Nc1cc(-c2ccc(Cl)c(OCC(F)F)c2F)nc(C(=O)O)c1Cl [Compound 96, 4-Amino-3-chloro-6-(4-chloro-2-fluoro-3-(2,2-difluoroethoxy)phenyl)pyridine-2-carboxylic acid] | 50% | 90% | 100% | 20% | 40% | 70% | – | – | – | – | – | – | – | – | – | – |
| CN(C)c1cc(-c2cc(N)c(Cl)c(C(=O)O)n2)c(F)cc1Cl [Compound 111, 4-Amino-3-chloro-6-(4-chloro-5-dimethyamino-2-fluorophenyl)pyridine-2-carboxylic acid] | – | – | – | – | – | – | – | – | – | – | – | – | – | 35% | 100% | 100% |
| CN(C)c1c(Cl)ccc(-c2cc(N)c(Cl)c(C(=O)O)n2)c1F [Compound 112, 4-Amino-3-chloro-6-(4-chloro-3-dimethyamino-2-fluorophenyl)pyridine-2-carboxylic acid] | – | – | – | – | – | – | – | – | – | – | 100% | 100% | 100% | 100% | 100% | 100% |
| COCCOc1c(Cl)ccc(-c2cc(N)c(Cl)c(C(=O)O)n2)c1F [Compound 113, 4-Amino-3-chloro-6-(4-chloro-2-fluoro-3-methoxyethoxyphenyl)pyridine-2-carboxylic acid] | – | – | – | 0% | 55% | 0% | 169 to 170 °C (dec.) | – | – | – | – | – | – | – | – | – |
| COc1cc(-c2nc(C(=O)O)c(Cl)c(N)c2F)c(F)cc1Cl [Compound 122, 4-Amino-3-chloro-6-(4-chloro-2-fluoro-5-methoxyphenyl)-5-fluoropyridine-2-carboxylic acid] | – | – | – | 100% | 100% | 100% | 180 to 181 °C | – | – | – | – | – | – | – | – | – |
| COc1c(Cl)ccc(-c2nc(C(=O)O)c(Cl)c(N)c2F)c1F [Compound 123, 4-Amino-3-chloro-6-(4-chloro-2-fluoro-3-methoxyphenyl)-5-fluoropyridine-2-carboxylic acid] | 100% | 100% | 100% | 100% | 100% | 100% | – | – | – | – | – | – | – | – | – | – |
| Nc1cc(-c2ccc(F)c(F)c2F)nc(C(=O)O)c1Cl [Compound 131, 4-Amino-3-chloro-6-(2,3,4-trifluorophenyl)pyridine-2-carboxlic acid] | – | – | – | – | – | – | – | – | – | – | 100% | 100% | 100% | 90% | 100% | 100% |
